Laboratory results: US11370771B2, “Inhibitors of TRPC6” (Boehringer Ingelheim International GmbH, priority 2018, dated 2022)

Molecular target: T1, human TRPC6 (Homo sapiens, UniProt Q9Y210)
T1 construct: expressed in transfected cells
T1 sequence (Q9Y210 1-931): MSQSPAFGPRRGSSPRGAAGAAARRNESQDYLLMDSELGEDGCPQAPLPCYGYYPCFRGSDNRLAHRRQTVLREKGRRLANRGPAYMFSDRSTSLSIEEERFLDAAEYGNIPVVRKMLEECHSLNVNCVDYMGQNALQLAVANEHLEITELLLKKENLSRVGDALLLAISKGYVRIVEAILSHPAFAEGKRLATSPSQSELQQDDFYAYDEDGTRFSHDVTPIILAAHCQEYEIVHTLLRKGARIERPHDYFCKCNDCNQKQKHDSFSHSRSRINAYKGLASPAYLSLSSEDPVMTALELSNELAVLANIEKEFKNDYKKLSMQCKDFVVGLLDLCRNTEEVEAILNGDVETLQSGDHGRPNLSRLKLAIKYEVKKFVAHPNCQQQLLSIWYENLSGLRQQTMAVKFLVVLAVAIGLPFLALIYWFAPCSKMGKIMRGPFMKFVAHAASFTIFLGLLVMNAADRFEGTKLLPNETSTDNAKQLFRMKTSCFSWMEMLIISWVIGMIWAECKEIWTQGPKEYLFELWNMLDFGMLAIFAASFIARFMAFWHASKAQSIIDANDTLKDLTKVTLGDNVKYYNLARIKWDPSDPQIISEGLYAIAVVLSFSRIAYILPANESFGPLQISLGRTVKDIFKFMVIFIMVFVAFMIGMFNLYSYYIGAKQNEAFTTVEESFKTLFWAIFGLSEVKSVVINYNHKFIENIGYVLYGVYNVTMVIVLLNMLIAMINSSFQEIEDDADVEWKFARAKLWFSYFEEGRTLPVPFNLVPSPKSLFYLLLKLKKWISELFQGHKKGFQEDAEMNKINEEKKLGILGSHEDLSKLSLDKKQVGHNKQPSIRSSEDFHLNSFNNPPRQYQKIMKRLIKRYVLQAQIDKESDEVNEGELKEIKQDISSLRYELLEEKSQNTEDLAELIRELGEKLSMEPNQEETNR
Test: High Throughput Screening Assay Method 2 (membrane potential dye, GSK1702934A agonist, HEK293 stably transfected with human TRPC6)
Assay type: cell-based
Conditions: antagonist effect against human TRPC6, 3 μM GSK1702934A agonist, HEK293 TRPC6 cells, read-out: Fluorescence TRPC6 IC50
From the text: This screening assay measures TRPC6 (transient receptor potential cation channel, subfamily C, member 6) ion channel activation via addition either of the commercially available DAG ligand analogue OAG (1-oleoyl-2-acetyl-sn-glycerol) or of the TRPC6 agonist 1-[1-(4,5,6,7,8-pentahydrocyclohepta[2,1-d]thiophen-2-ylcarbonyl)-4-piperidyl]-3-hydrobenzimidazol-2-one (GSK1702934A). The assay utilizes a FLIPR membrane potential (FMP) dye from Molecular Devices, which is a voltage sensitive indicator with a fluorescent quencher. Changes in membrane potential as measured by the fluorescent signal increase during membrane depolarization provide a measurement of channel activity.
The commercially available HEK293 cell line (ATCC) was stably transfected with an human TRPC6 gene construct in pcDNA3.1(+) (Thermo Fisher) and screened to find a clone with TRPC6 expression. These cells were maintained in growth medium recommended by the manufacturer supplemented with 400 μg/ml G418 to promote retention of the TRPC6 construct. After growing to near confluency, cells were plated at a density of 15,000 cells/well in clear bottom black walled poly-D-Lys coated 384-well tissue culture treated plates (TwinHelix, cat. #GR 4332 CPL) in growth medium lacking G418, and allowed to grow for 24 hrs. Growth media was removed from the wells and cells were then loaded with 20 μL of 0.5× Membrane Potential sensitive dye (Molecular Devices) in the presence of 30 μM BAPTA-AM (Invitrogen) in Tyrode's assay buffer (130 mM NaCl, 5 mM KCl, 0.15 mM CaCl2), 1 mM MgCl2, 5 mM NaHCO3, 20 mM HEPES, pH 7.4) and incubated for 60 min at room temperature in the dark. Ten μL/well of test compound or controls was added to the wells with the FLIPR^TETRA (Molecular Devices) and incubated for 5 minutes. Compounds were tested at eight concentrations (10, 3.16, 1, 0.316, 0.1, 0.0316, 0.01 and 0.00316 μM diluted in Tyrode's assay buffer and 0.5% DMSO, final concentration) with inter-plate duplicate data points. Subsequently, 15 μL/well of GSK1702934A agonist in Tyrode's assay buffer was added to a final concentration of 3 μM by the FLIPR^TETRA and the signal of the emitted fluorescence (Excitation: 510-545 nm, Emission: 565-625 nm) was recorded for 3 minutes. Negative and positive controls were included on each plate. Negative controls wells consisted of cells exposed to Tyrode's assay buffer and agonist solution, but no test compound. Positive control consisted of cells exposed to […] Verapamil hydrochloride (Tocris, cat. #0654) diluted in Tyrode's assay buffer and 0.5% DMSO final concentration and agonist solution. Inhibition was expressed as a percentage of control, with 0% activity being a result in which the response value of the test wells reached a level identical to the wells containing Verapamil plus GSK1702934A and 100% activity being a result in which the response value of the test wells reached a level identical to the wells containing GSK1702934A alone. Genedata Screener® 14.0.6 was used for data analysis to fit IC50 curves.

IC50 | SMILES
97 nM | COc1cc(N)ncc1C1CCN(C(=O)c2ccc(Oc3ccc(F)cc3)cc2)CC1 [Compound 32, 5-{1-[4-(4-Fluorophenoxy)benzoyl]piperidin-4-yl}-4-methoxypyridin-2-amine]
478 nM | COc1cc(C(=O)N2CCC(c3cnc(N)cc3OC)CC2)c(F)cc1OCC1CC(F)(F)C1 [Compound 37, 5-(1-{4-[(3,3-Difluorocyclobutyl)methoxy]-2-fluoro-5-methoxybenzoyl}piperidin-4-yl)-4-methoxypyridin-2-amine]
135 nM | COc1cc(C(=O)N2CCC(c3cnc(N)cc3OC)CC2)c(F)cc1OCC1CCC1 [Compound 36, 5-{1-[4-(Cyclobutylmethoxy)-2-fluoro-5-methoxybenzoyl]piperidin-4-yl}-4-methoxypyridin-2-amine]
141 nM | Nc1ccc(C2CCN(C(=O)c3ccc(Oc4ccc(F)cc4)c(F)c3)CC2)nn1 [Compound 48, 6-{1-[3-Fluoro-4-(4-fluorophenoxy)benzoyl]piperidin-4-yl}pyridazin-3-amine]
789 nM | COc1cc(N)ncc1C1CCN(C(=O)c2ccc(OCCC3CC3)cc2F)CC1 [Compound 42, 5-{1-[4-(2-Cyclopropylethoxy)-2-fluorobenzoyl]piperidin-4-yl}-4-methoxypyridin-2-amine]
791 nM | COc1cc(N)ncc1C1CCN(C(=O)c2ccc(OC[C@@H]3C[C@H]3C)cc2F)CC1 (relative stereo) [Compound 38, 5-[1-(2-Fluoro-4-{[trans-2-methylcyclopropyl]methoxy}benzoyl)piperidin-4-yl]-4-methoxypyridin-2-amine]
154 nM | COc1cc(C(=O)N2CCC(c3cnc(N)cc3OC)CC2)c(F)cc1OCC1CC1 [Compound 35, 5-{1-[4-(Cyclopropylmethoxy)-2-fluoro-5-methoxybenzoyl]piperidin-4-yl}-4-methoxypyridin-2-amine]
182 nM | COc1cc(C(=O)N2CCC(c3nnc(N)cc3C)CC2)c(F)cc1Oc1ccc(F)cc1 [Compound 51, 6-{1-[2-Fluoro-4-(4-fluorophenoxy)-5-methoxybenzoyl]piperidin-4-yl}-5-methylpyridazin-3-amine]
57 nM | Nc1ccc(C2CCN(C(=O)c3ccc(Oc4ccc(F)cc4)cc3F)CC2)nn1 [Compound 46, 6-{1-[2-Fluoro-4-(4-fluorophenoxy)benzoyl]piperidin-4-yl}pyridazin-3-amine]
250 nM | COc1cc(C(=O)N2CCC(c3cnc(N)cc3OC)CC2)c(F)cc1OCC(C)C [Compound 33, 5-{1-[2-Fluoro-5-methoxy-4-(2-methylpropoxy)benzoyl]piperidin-4-yl}-4-methoxypyridin-2-amine]
199 nM | COc1cc(C(=O)N2CCC(c3cnc(N)cc3OC)CC2)ccc1OCC1CCC1 [Compound 44, 5-{1-[4-(Cyclobutylmethoxy)-3-methoxybenzoyl]piperidin-4-yl}-4-methoxypyridin-2-amine]
482 nM | COc1cc(N)ncc1C1CCN(C(=O)c2ccc(OCc3csnn3)cc2F)CC1 [Compound 40, 5-(1-{2-Fluoro-4-[(1,2,3-thiadiazol-4-yl)methoxy]benzoyl}piperidin-4-yl)-4-methoxypyridin-2-amine]
288 nM | Cc1cc(C2CCN(C(=O)c3ccc(Oc4ccc(F)cc4)cc3)CC2)nnc1N [Compound 50, 6-{1-[4-(4-Fluorophenoxy)benzoyl]piperidin-4-yl}-4-methylpyridazin-3-amine]
80 nM | Nc1ccc([C@@H]2CCN(C(=O)c3cc(F)c(Oc4ccc(F)cc4)cc3F)[C@H](CO)C2)nn1 [Compound 52b, [(2S,4R)-4-(6-Aminopyridazin-3-yl)-1-[2,5-difluoro-4-(4-fluorophenoxy)benzoyl]piperidin-2-yl]methanol]
1810 nM | COc1cc(N)ncc1C1CCN(C(=O)c2ccc(OCc3ccccc3)cc2F)CC1 [Compound 43, 5-{1-[4-(Benzyloxy)-2-fluorobenzoyl]piperidin-4-yl}-4-methoxypyridin-2-amine]
205 nM | COc1cc(N)ncc1C1CCN(C(=O)c2ccc(Oc3ccc(F)cc3)cc2F)CC1 [Compound 31, 5-{1-[2-Fluoro-4-(4-fluorophenoxy)benzoyl]piperidin-4-yl}-4-methoxypyridin-2-amine]
662 nM | CCCOc1ccc(C(=O)N2CCC(c3cnc(N)cc3OC)CC2)c(F)c1 [Compound 39, 5-[1-(2-Fluoro-4-propoxybenzoyl)piperidin-4-yl]-4-methoxypyridin-2-amine]
1160 nM | Nc1ccc(C2CCN(C(=O)c3ccc(Oc4ccccc4)c(C(F)(F)F)c3)CC2)nn1 [Compound 49, 6-{1-[4-Phenoxy-3-(trifluoromethyl)benzoyl]piperidin-4-yl}pyridazin-3-amine]
166 nM | COc1cc(N)ncc1C1CCN(C(=O)c2cc(F)c(Oc3ccc(F)cc3)cc2F)CC1 [Compound 30, 5-{1-[2,5-Difluoro-4-(4-fluorophenoxy)benzoyl]piperidin-4-yl}-4-methoxypyridin-2-amine]
97 nM | COc1cc(N)ncc1N1CCN(C(=O)c2ccc(Oc3ccc(F)cc3)cc2F)C2(CC2)C1 [Compound 27, 5-{4-[2-Fluoro-4-(4-fluorophenoxy)benzoyl]-4,7-diazaspiro[2.5]octan-7-yl}-4-methoxypyridin-2-amine]
428 nM | COc1cc(C(=O)N2CCC(c3cnc(N)cc3OC)CC2)c(F)cc1OCC1CC(C)C1 (centres unmarked) [Compound 34, 5-(1-{2-Fluoro-5-methoxy-4-[(3-methylcyclobutyl)methoxy]benzoyl}piperidin-4-yl)-4-methoxypyridin-2-amine]
34 nM | COc1cc(C(=O)N2CCC(c3ccc(N)nn3)CC2)c(F)cc1Oc1ccc(F)cc1 [Compound 47, 6-{1-[2-Fluoro-4-(4-fluorophenoxy)-5-methoxybenzoyl]piperidin-4-yl}pyridazin-3-amine]
2170 nM | COc1cc(N)ncc1C1CCN(C(=O)c2ccc(OCC3CCCCC3)cc2F)CC1 [Compound 41, 5-{1-[4-(Cyclohexylmethoxy)-2-fluorobenzoyl]piperidin-4-yl}-4-methoxypyridin-2-amine]
158 nM | COc1cc(C(=O)N2CCC(c3cnc(N)cc3OC)CC2)c(F)cc1Oc1ccc(F)cc1 [Compound 29, 5-{1-[2-Fluoro-4-(4-fluorophenoxy)-5-methoxybenzoyl]piperidin-4-yl}-4-methoxypyridin-2-amine]
1190 nM | COc1cc(N)ncc1C1CCN(C(=O)c2ccc(OCc3nccs3)cc2F)CC1 [Compound 54, 5-(1-{2-Fluoro-4-[(1,3-thiazol-2-yl)methoxy]benzoyl}piperidin-4-yl)-4-methoxypyridin-2-amine]
641 nM | COc1cc(N)ncc1C1CCN(C(=O)c2ccc(OCc3ccon3)cc2F)CC1 [Compound 53, 5-(1-{2-Fluoro-4-[(1,2-oxazol-3-yl)methoxy]benzoyl}piperidin-4-yl)-4-methoxypyridin-2-amine]
